Our source for the IC50 values is patent US12612380B2, “Non-lysosomal glucosylceramidase inhibitors and uses thereof” (ALECTOS THERAPEUTICS INC., priority 2019, dated 2026).

The first assay deals with T1, GBA2 (Homo sapiens, UniProt Q9HCG7).
T1 sequence (Q9HCG7 1-927): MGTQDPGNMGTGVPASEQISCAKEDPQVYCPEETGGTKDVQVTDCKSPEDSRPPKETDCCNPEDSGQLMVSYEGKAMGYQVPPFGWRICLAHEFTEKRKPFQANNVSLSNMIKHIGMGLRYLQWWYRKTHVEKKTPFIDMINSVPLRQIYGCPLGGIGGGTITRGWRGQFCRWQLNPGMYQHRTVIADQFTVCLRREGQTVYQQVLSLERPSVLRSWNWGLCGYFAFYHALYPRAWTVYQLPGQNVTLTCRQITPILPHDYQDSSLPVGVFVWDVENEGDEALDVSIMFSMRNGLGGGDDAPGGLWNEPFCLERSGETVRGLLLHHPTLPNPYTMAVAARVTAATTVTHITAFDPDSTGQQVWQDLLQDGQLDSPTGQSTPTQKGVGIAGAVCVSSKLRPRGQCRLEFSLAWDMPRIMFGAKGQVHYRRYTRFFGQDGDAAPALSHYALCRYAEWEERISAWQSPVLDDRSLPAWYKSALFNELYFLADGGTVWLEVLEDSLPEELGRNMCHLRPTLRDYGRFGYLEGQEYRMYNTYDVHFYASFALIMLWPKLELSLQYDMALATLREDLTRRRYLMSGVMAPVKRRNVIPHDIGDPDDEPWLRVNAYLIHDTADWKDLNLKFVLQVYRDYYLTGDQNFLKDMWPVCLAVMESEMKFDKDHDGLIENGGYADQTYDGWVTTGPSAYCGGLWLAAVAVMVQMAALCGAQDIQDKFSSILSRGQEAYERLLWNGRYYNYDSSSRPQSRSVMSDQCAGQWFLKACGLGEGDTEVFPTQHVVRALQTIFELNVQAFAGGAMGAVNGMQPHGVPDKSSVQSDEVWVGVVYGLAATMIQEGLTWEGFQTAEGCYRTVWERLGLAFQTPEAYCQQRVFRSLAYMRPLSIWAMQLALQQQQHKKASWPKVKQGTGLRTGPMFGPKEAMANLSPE
Description: Determination of IC50 values for inhibition of GBA2 in cell lysate. It is filed as biochemical. More on the design: host or cells: HEK293T (lentiviral transduction, puromycin selection); used as cellular homogenate.
Settings: not given
An excerpt: Assay for Determination of IC50 Values for Inhibition of GBA2 in Cell Lysate
Stable GBA2-expressing HEK293T cells were generated as follows. The PCR-amplified human GBA2 (GBA2 nucleotide accession number BC011363) using the following primers: Sense 5′---CGCAAATGGGCGGTAGGCGTG (SEQ ID NO:2)---3′ and antisense 5′---TAGTCAGCCATGGGGCGGAGA (SEQ ID NO:3)---3′) was cloned into pLenti-GIII-CMV by ABM Inc. The correctness of the construct was verified by sequencing. Lentivirus particles containing GBA2 in the pLenti-GIII-CMV plasmid were prepared using a third Generation Virus Packaging Mix (ABM cat #LV053-G074) in HEK293T cells and supplied as a virus particle suspension. The virus suspension was used for infection of HEK293T cells. Cell populations stably expressing human GBA2 were selected using puromycin for several weeks as determined by activity assays and western blot.
Various concentrations of test compounds were prepared in DMSO and then diluted into buffer consisting of 100 mM citric acid, 200 mM disodium phosphate with 1% v/v C10E6, pH 5.5. Cellular homogenates (0.25 mg/mL) of the stable HEK293T-overexpressing GBA2 cell line were preincubated for 10 min on ice with an inhibitor of GCase (20 μM (6R,7R,8S)-8-ethyl-4-azaspiro[2.5]octane-6,7-diol). The reaction solution consisted of 20 μL of 750 μM 4-methylumbelliferone-β-D glucopyranoside in 5% DMSO in the same buffer, 20 μL of GBA2-cellular homogenate pre-treated with (6R,7R,8S)-8-ethyl-4-azaspiro[2.5]octane-6,7-diol and 20 μL of various concentrations of test compound in 10% DMSO in the same buffer. The final concentrations in the reaction were 0.083 mg/mL GBA2-cellular homogenate, 250 μM 4-methylumbelliferone-β-D glucopyranoside, and various concentrations of inhibitor. The inhibitor and GBA2-cellular homogenate were preincubated together for 5 min at 37° C. The reaction was initiated by addition of substrate and allowed to proceed for 20 min at 37° C. to assess GBA2 activity. Reactions were stopped by the addition of an equal volume (60 μL) of 0.5 M NaOH, 0.3 M glycine, pH 10.5. Fluorescence was measured on a Biotek Synergy H4 plate reader at wavelengths of 365 nm for excitation and 450 nm for emission. Incubations without added enzyme or added inhibitors were used to define no enzyme activity and maximal enzyme activity, respectively. IC50 values were determined by fitting the data to a log[inhibitor concentration] versus response curve using GraphPad Prism. IC50 values were calculated as the concentration of inhibitor required to inhibit GBA2 activity by 50%.
A word on the IC50: it is the midpoint of a concentration-inhibition curve. For `C[C@@H]1[C@@H](O)[C@H](O)[C@@H](O)CN1CCc1ccc(Cl)cc1F` [Example 46, (2R,3R,4R,5S)-1-(4-chloro-2-fluorophenethyl)-2-methylpiperidine-3,4,5-triol], the IC50 lay within 100 to 1000 nM.
Still for that read-out and setting: in the case of `C[C@@H]1[C@@H](O)[C@H](O)[C@@H](O)CN1CCc1ccc(F)c(F)c1` [Example 43, (2R,3R,4R,5S)-1-(3,4-difluorophenethyl)-2-methylpiperidine-3,4,5-triol] it was 100 to 1000 nM; in that of `O[C@H]1[C@H](O)[C@@H](O)CN(CCc2ccc3c(c2)OCCO3)[C@@H]1CF` [Example 153, (2S,3R,4R,5S)-1-(2-(2,3-dihydrobenzo[b][1,4]dioxin-6-yl)ethyl)-2-(fluoromethyl)piperidine-3,4,5-triol], below 100 nM.
Take `C[C@@H]1[C@@H](O)[C@H](O)[C@@H](O)CN1CCc1cc(Cl)ccc1F` [Example 47, (2R,3R,4R,5S)-1-(5-chloro-2-fluorophenethyl)-2-methylpiperidine-3,4,5-triol]: the IC50 was below 100 nM.

Still in this assay, the particulars now being: cellular homogenate of HEK293T cells overexpressing human GBA2, 250 μM 4-methylumbelliferone-β-D glucopyranoside, pH 5.5, 37° C., GCase inhibitor present; read-out: GBA2 IC50.
For the compound `C[C@@H]1[C@@H](O)[C@H](O)[C@@H](O)CN1C[C@H]1CCN(c2cnccc2C(F)(F)F)C1` [Example 124, (2R,3R,4R,5S)-2-methyl-1-(((R)-1-(4-(trifluoromethyl)pyridin-3-yl)pyrrolidin-3-yl)methyl)piperidine-3,4,5-triol], the IC50 is below 100 nM.
For `C[C@@H]1[C@@H](O)[C@H](O)[C@@H](O)CN1CCC12CC3CC(CC(C3)C1)C2` [Example 33, (2R,3R,4R,5S)-1-((2-adamantan-1-yl)ethyl)-2-methylpiperidine-3,4,5-triol], the IC50 was below 100 nM.
The same measure, in the same setting: as for `O[C@H]1[C@H](O)[C@@H](O)CN(CCc2ccccc2)[C@@H]1C(F)F` [Example 156, (2S,3R,4R,5S)-2-(difluoromethyl)-1-phenethylpiperidine-3,4,5-triol], the figure is 1000 to 25000 nM.
In the case of `C[C@@H]1[C@@H](O)[C@H](O)[C@@H](O)CN1CC1CN([C@H]2CCCC[C@H]2C(F)(F)F)C1` [Example 112, (2R,3R,4R,5S)-2-methyl-1-((1-((1S,2R)-2-(trifluoromethyl)cyclohexyl)azetidin-3-yl)methyl)piperidine-3,4,5-triol], the IC50 was in the range of 1000 to 25000 nM.
Same read-out and setting: in the case of `O[C@H]1[C@H](O)[C@@H](O)CN(CC2CCN(c3ccc(C(F)(F)F)cc3)CC2)[C@@H]1CF` [Example 155, (2S,3R,4R,5S)-2-(fluoromethyl)-1-((1-(4-(trifluoromethyl)phenyl)piperidin-4-yl)methyl)piperidine-3,4,5-triol] it was below 100 nM; in that of `C[C@@H]1[C@@H](O)[C@H](O)[C@@H](O)CN1CC1CCc2ccccc2C1` (stereo partly drawn) [Example 27, (2R,3R,4R,5S)-2-methyl-1-((1,2,3,4-tetrahydronaphthalen-2-yl)methyl)piperidine-3,4,5-triol], below 100 nM.
Same read-out and setting: as for `C[C@@H]1[C@@H](O)[C@H](O)[C@@H](O)CN1C[C@H]1CCN(c2cccnc2)C1` [Example 122, (2R,3R,4R,5S)-2-methyl-1-(((R)-1-(pyridin-3-yl)pyrrolidin-3-yl)methyl)piperidine-3,4,5-triol], the figure is 1000 to 25000 nM.
On to `CC(C)(C)C1CCC(CN2C[C@H](O)[C@@H](O)[C@H](O)[C@H]2CF)CC1` (stereo partly drawn) [Example 146, (2S,3R,4R,5S)-1-((4-(tert-butyl)cyclohexyl)methyl)-2-(fluoromethyl)piperidine-3,4,5-triol], for which the IC50 was below 100 nM.
The same measure, in the same setting: as for `C[C@@H]1[C@@H](O)[C@H](O)[C@@H](O)CN1CC1CCC2(CC1)CC2` [Example 23, (2R,3R,4R,5S)-2-methyl-1-(spiro[2.5]octan-6-ylmethyl)piperidine-3,4,5-triol], the figure is 100 to 1000 nM; as for `C[C@@H]1[C@@H](O)[C@H](O)[C@@H](O)CN1CC1CCN(C(=O)Cc2ccccc2)CC1` [Example 108, 2-phenyl-1-(4-(((2R,3R,4R,5S)-3,4,5-trihydroxy-2-methylpiperidin-1-yl)methyl)piperidin-1-yl)ethanone], 100 to 1000 nM; as for `C[C@@H]1[C@@H](O)[C@H](O)[C@@H](O)CN1CC1CCN(C(=O)C2CCC(C(F)(F)F)CC2)CC1` (stereo partly drawn) [Example 105, (4-(trifluoromethyl)cyclohexyl)(4-(((2R,3R,4R,5S)-3,4,5-trihydroxy-2-methylpiperidin-1-yl)methyl)piperidin-1-yl)methanone], below 100 nM.
As for `C[C@@H]1[C@@H](O)[C@H](O)[C@@H](O)CN1CC1CCN(c2cccc(F)c2)CC1` [Example 84, (2R,3R,4R,5S)-1-((1-(3-fluorophenyl)piperidin-4-yl)methyl)-2-methylpiperidine-3,4,5-triol], the IC50 was below 100 nM.
Same read-out and setting: as for `C=C[C@H]1CC[C@@H](CN2C[C@H](O)[C@@H](O)[C@H](O)[C@H]2C)CC1` [Example 6, (2R,3R,4R,5S)-2-methyl-1-(((1s,4S)-4-vinylcyclohexyl)methyl)piperidine-3,4,5-triol], the figure is below 100 nM.
The same measure, in the same setting: in the case of `C[C@@H]1[C@@H](O)[C@H](O)[C@@H](O)CN1CC1CCN(c2ccccc2)CC1` [Example 82, (2R,3R,4R,5S)-2-methyl-1-((1-phenylpiperidin-4-yl)methyl)piperidine-3,4,5-triol] it was 100 to 1000 nM; in that of `O[C@H]1[C@H](O)[C@@H](O)CN(CC2CCN(c3ccccc3)CC2)[C@@H]1CF` [Example 154, (2S,3R,4R,5S)-2-(fluoromethyl)-1-((1-phenylpiperidin-4-yl)methyl)piperidine-3,4,5-triol], below 100 nM.
Still for that read-out and setting: as for `C[C@@H]1[C@@H](O)[C@H](O)[C@@H](O)CN1C[C@H]1CCN(C(=O)c2ccc(C(F)(F)F)cc2)C1` [Example 130, (4-(trifluoromethyl)phenyl)((R)-3-(((2R,3R,4R,5S)-3,4,5-trihydroxy-2-methylpiperidin-1-yl)methyl)pyrrolidin-1-yl)methanone], the figure is below 100 nM.
In the case of `C[C@@H]1[C@@H](O)[C@H](O)[C@@H](O)CN1C[C@H]1CCN(c2ccccc2)C1` [Example 113, (2R,3R,4R,5S)-2-methyl-1-(((R)-1-phenylpyrrolidin-3-yl)methyl)piperidine-3,4,5-triol], the IC50 was below 100 nM.
On the same count and under the same terms, in the case of `C[C@@H]1[C@@H](O)[C@H](O)[C@@H](O)CN1CC1CCN(C(=O)C(C)(C)C)CC1` [Example 93, 2,2-dimethyl-1-(4-(((2R,3R,4R,5S)-3,4,5-trihydroxy-2-methylpiperidin-1-yl)methyl)piperidin-1-yl)propan-1-one] it was 100 to 1000 nM; in that of `C[C@@H]1[C@@H](O)[C@H](O)[C@@H](O)CN1CC1CCN(C(=O)c2ccccc2)CC1` [Example 106, phenyl(4-(((2R,3R,4R,5S)-3,4,5-trihydroxy-2-methylpiperidin-1-yl)methyl)piperidin-1-yl)methanone], 100 to 1000 nM.
